These results are taken from patent publication US7749992B2, “Compounds and methods for treating dislipidemia” (Eli Lilly and Company, priority 2003, dated 2010).

As usually defined, the IC50 is the point on the concentration scale where inhibition reaches its midpoint.

One test concerns the target T1, human CETP (Homo sapiens, UniProt P11597).
T1 construct: made in house; host or cells: AV-12 cells (engineered to express human CETP)
T1 sequence (P11597 18-493): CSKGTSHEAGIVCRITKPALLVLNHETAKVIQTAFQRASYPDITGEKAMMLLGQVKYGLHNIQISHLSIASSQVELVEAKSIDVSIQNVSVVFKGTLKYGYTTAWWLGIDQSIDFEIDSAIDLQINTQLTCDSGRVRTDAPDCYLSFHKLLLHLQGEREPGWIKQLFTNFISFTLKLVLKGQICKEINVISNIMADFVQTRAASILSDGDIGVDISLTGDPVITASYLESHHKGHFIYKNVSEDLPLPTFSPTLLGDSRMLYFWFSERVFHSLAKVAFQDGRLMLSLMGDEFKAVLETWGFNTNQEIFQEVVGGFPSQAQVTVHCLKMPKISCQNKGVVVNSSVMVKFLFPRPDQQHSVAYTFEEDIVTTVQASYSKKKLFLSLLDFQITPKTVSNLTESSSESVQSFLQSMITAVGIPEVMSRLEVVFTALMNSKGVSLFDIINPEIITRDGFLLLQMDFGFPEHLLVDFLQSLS
The test can be described thus: In vitro CETP inhibitor assay: SPA assay. Conditions: CETP produced by AV-12 cells expressing human CETP; [3H]cholesterol ester transfer from HDL to biotinylated LDL; 30-minute incubation at 37 C; HEPES-NaCl based buffer; read-out: Inhibition of CETP Activity (SPA assay) IC50. It counts as biochemical. Here is the method: An in vitro scintillation proximity assay (SPA) has been used to test the ability of compounds of this invention to inhibit the transfer of radiolabeled cholesterol esters between HDL and LDL. This assay monitors the inhibition of the transfer of [^3H]cholesterol esters from HDL (Amersham) to biotinylated LDL (Amersham) by a CETP source. CETP produced by AV-12 cells that have been created to express human CETP has been used to mediate the transfer. After a 30-minute incubation at 37 C in which the radiolabeled cholesterol ester is transferred in a HEPES-NaCl based buffer, the reaction is stopped and the biotinylated LDL is bound to streptavidin/scintillant coated SPA beads (Amersham). Then the radioactive signal is measured in a Packard 96-well scintillation TopCounter with window settings fully open. Compounds of this invention can be added to the reaction mixture in an appropriate solvent to assess their ability to inhibit the transfer of the radiolabeled cholesterol esters by CETP, represented by a decrease in radioactive signal. The activity transferred in the reaction mixtures with control solvents is rated as 100% transfer. The compound concentration at which the activity is midway between 100% and the lowest recorded activity is indicated as the IC50 value. A three-parameter fixed top logistic curve-fitting algorithm is used to generate the IC50 value.
Turning to `CC(=O)N(Cc1cc(C(F)(F)F)cc(C(F)(F)F)c1)C1CCCN(C(=O)OC(C)C)c2c1ccc1c2CCC1` (racemic) [Example 129, (+/−)-6-[Acetyl-(3,5-bis-trifluoromethyl-benzyl)-amino]-2,3,6,7,8,9-hexahydro-1H-10-aza-cyclohepta[e]indene-10-carboxylic acid isopropyl ester], the IC50 came out at 0.054 µM. On the same count and under the same terms, with `CC(=O)N(Cc1cc(C(F)(F)F)cc(C(F)(F)F)c1)C1CCCN(C(=O)OC(C)C)c2ccccc21` (stereo not shown) [Example 1, 5-[Acetyl-(3,5-bis-trifluoromethyl-benzyl)-amino]-2,3,4,5-tetrahydro-benzo[b]azepine-1-carboxylic acid isopropyl ester] the figure was 0.293 µM. Still for that read-out and setting: with `CC(=O)N(Cc1cc(C(F)(F)F)cc(C(F)(F)F)c1)[C@H]1CCCN(C(=O)OC(C)C)c2cc(C(F)(F)F)c(C)cc21` [Example 111, (S)-5-[Acetyl-(3,5-bis-trifluoromethyl-benzyl)-amino]-7-methyl-8-trifluoromethyl-2,3,4,5-tetrahydro-benzo[b]azepine-1-carboxylic acid isopropyl ester] the figure was 0.068 µM; with `CC(=O)N(Cc1cc(C(F)(F)F)cc(C(F)(F)F)c1)C1CCCN(C(=O)OC(C)(C)C)c2cc(C(F)(F)F)c(C)cc21` (stereo not shown) [Example 117, 5-[Acetyl-(3,5-bis-trifluoromethyl-benzyl)-amino]-7-methyl-8-trifluoromethyl-2,3,4,5-tetrahydro-benzo[b]azepine-1-carboxylic acid tert-butyl ester], 0.065 µM. The same measure, in the same setting: the same measure for `CC(=O)N(Cc1cc(C(F)(F)F)cc(C(F)(F)F)c1)[C@H]1CCCN(C(=O)OC(C)(C)C)c2cc(C(F)(F)F)c(C)cc21` [Example 119, (S)-5-[Acetyl-(3,5-bis-trifluoromethyl-benzyl)-amino]-7-methyl-8-trifluoromethyl-2,3,4,5-tetrahydro-benzo[b]azepine-1-carboxylic acid tert-butyl ester]: 0.042 µM. In the case of `CC(=O)N(Cc1cc(C(F)(F)F)cc(C(F)(F)F)c1)C1CCCN(C(=O)OC2CCCC2)c2cc(OC(F)(F)F)c(C)cc21` (stereo not shown) [Example 182, 5-[Acetyl-(3,5-bis-trifluoromethyl-benzyl)-amino]-7-methyl-8-trifluoromethoxy-2,3,4,5-tetrahydro-benzo[b]azepine-1-carboxylic acid cyclopentyl ester], the half-maximal inhibitory concentration (IC50) is 0.191 µM.

In the next test the test system is transgenic mice that express both human CETP and human apolipoprotein A-1. The test can be described thus: Assay of plasma lipids in vivo (elevation of HDL cholesterol). Conditions: single oral dose 30 mg/kg; at 8 hr; serum HDL cholesterol relative to control. Here is the method:
Activity of compounds of this invention in vivo can be determined by the level of elevation of HDL cholesterol relative to control by a given amount of compound in a CETP-containing animal species. A strain of transgenic mice that express both human CETP and human apolipoprotein A-1 (Taconic, Germantown, N.Y.) is used to test compounds of this invention. Test compounds are administered once orally in selected aqueous or oil based vehicles. At various times after dosing, ranging from 4 h to 24 h, blood is obtained. Blood is allowed to clot and serum is obtained by centrifugation. HDL cholesterol levels in the serum is determined by HDL-C plus reagents (Roche/Hitachi, Indianapolis, Ind.) with a clinical chemistry analyzer (Roche/Hitachi, Indianapolis, Ind.). Additional serum lipids can be analyzed by enzymatic methods. Lipids in the VLDL, LDL and HDL fractions are analyzed by enzymatic methods after precipitation or size exclusion chromatography.
Regarding `CC(=O)N(Cc1cc(C(F)(F)F)cc(C(F)(F)F)c1)[C@H]1CCCN(C(=O)OC(C)(C)C)c2cc(C(F)(F)F)c(C)cc21` [Example 119, (S)-5-[Acetyl-(3,5-bis-trifluoromethyl-benzyl)-amino]-7-methyl-8-trifluoromethyl-2,3,4,5-tetrahydro-benzo[b]azepine-1-carboxylic acid tert-butyl ester], the “% HDL cholesterol increase” value was 123%.
